Tests used:
Type in all cases: in vivo
[1] = tested on: brown plant hopper (Nilaparvata lugens); test: Control of the brown plant hopper in rice plants (spray, mortality); conditions: mortality of hopper larvae on sprayed rice plants; mg/L: Polyferulate 48, Chlorantraniliprole 45, Cyantraniliprole 135, combinations 48 + 45 and 48 + 135
Procedure: To determine the efficacy of insecticides on the mortality percentage of brown planthopper an experiment was conducted in the laboratory. The seedlings of 30-40 days old rice plant (Oryza sativa) were transplanted in plastic pot. The rice plants were grown in plastic pots with Mylar film cage and kept in the laboratory. Rice plants are sprayed with the preparation of the active compound at the desired concentration and are infested with larvae of the brown plant hopper (Nilaparvata lugens) while the rice leaves are still moist. Ten brown planthopper were released in each pot that was selected randomly.
The brown planthopper (BPH), Nilaparvata lugens (Hemiptera: Delphacidae) is a planthopper species that feeds on rice plants (Oryza sativa L.). These insects are among the most important pests of rice, which is the major staple crop for about half the world's population. After 3 days, the mortality in percentage is determined. 100% means that all the hopper larvae have been killed; 0% means that none of the hopper larvae have been killed.

[2] = Insecticide uptake by leaves of rice plants (LC-MS/MS); conditions: chlorantraniliprole in rice leaves 72 h after smearing 5 mL; chlorantraniliprole 100 μg/mL, polyferulate 25 μg/mL where present; three replicates
Procedure: Rice plants were cultivated in a plant growth chamber with a 12 h day and high intensity lighting. The rice leaves near the roots were smeared with 5 mL of solution containing chlorantraniliprole (100 μg·mL−1) or chlorantraniliprole (100 μg·mL−1) and polyferulate solution (25 μg·mL−1) and covered. When the droplets on the leaves were dried, the plastic was taken away. The rice leaves were harvested 72 h after treated. A sample of the rice leaves (5 g) was weighted and extracted with acetonitrile and the content of uptake chlorantraniliprole determinate by LC-MS/MS. Each experiment was repeated for three replicates.

[3] = tested on: whitefly (Bemisia tabaci); test: Control of whitefly in cotton plants (translaminar efficacy); conditions: 2nd instar nymphs on cotton leaf, adults counted, mg/L: Polyferulate 4, Spirotetramat 18.6, Imidacloprid 21.8, combinations 4 + 18.6 and 4 + 21.8
Procedure: Three-week-old cotton plants were defoliated so that only one true leaf remained. 20-30 female adults of B. tabaci were clipped to the underside of the leaf for egg deposition and removed after 16 h. The silverleaf whitefly (Bemisia tabaci, also informally referred to as the sweet potato whitefly) is one of several species of whitefly that are currently important agricultural pests.
Once the 2nd instar nymphs had settled the upper side of the leaf was sprayed using a TLC spraying device (Merck Inc.). Before spraying the number of nymphs was counted on each leaf. The application volume was 500 μL of tested insecticides solutions diluted in tap water. The final concentration of each component appears in the table. Translaminar efficacy was evaluated by counting adults 10 days after application.

| SMILES | Observed efficacy (%) 3 days after treatment [1] [%] | Content of insecticide in the plant material [2] [µg/g] | Observed efficacy (%) 10 days after treatment [3] [%] |
| --- | --- | --- | --- |
| CNC(=O)c1cc(Cl)cc(C)c1NC(=O)c1cc(Br)nn1-c1ncccc1Cl [Chlorantraniliprole] | 50 | 38.0 ± 0.3 | – |
| CNC(=O)c1cc(C#N)cc(C)c1NC(=O)c1cc(Br)nn1-c1ncccc1Cl [Cyantraniliprole] | 30 | – | – |
| O=[N+]([O-])NC1=NCCN1Cc1ccc(Cl)nc1 [Imidacloprid] | – | – | 45 |
| CCOC(=O)OC1=C(c2cc(C)ccc2C)C(=O)N[C@]12CC[C@@H](OC)CC2 [Spirotetramat] | – | – | 75 |
